Results: patent US5256686A, “Phenylalkan(en)oic acid” (Ono Pharmaceutical Co., Ltd., priority 1989, dated 1993)

Molecular target: T1, human PMNL LTB4 receptor (Homo sapiens, UniProt Q15722)
T1 construct: endogenous in cells; host or cells: human polymorphonuclear leukocytes (PMNL), intact cells
Assay: Binding affinity of 3H-LTB4 antagonist to human PMNL LTB4 receptor (inhibition of specific 3H-LTB4 binding)
Conditions: 1 nM 3H-LTB4, human PMNLs, 4° C., 20 min
Method: Human PMNLS (1×10^7 cells) were incubated with 1 nM ^3 H-LTB4 in Hanks balanced salt solution (1 ml) at 4° C. for 20 min. in the presence or absence of increasing concentrations of unlabeled LTB4 or various compounds. Free ^3 H-LTB4 was separated from PMNLs-bound ligands by vacuum filteration through Whatman GF/B or C glass fiber filters. The filters were then washed rapidly 4 times with 2.5 ml of the ice-cold phosphate buffered saline. The radioactivity retained in the filter was determined by liquid scintillation counting. Specific binding was defined as the difference between total binding and binding in the presence of 3 μM LTB4 (nonspecific binding). The inhibitory effect of specific ^3 H-LTB4 binding was calculated from the following equation.
The percentage of inhibition (%)=100-(B1 /B0 ×100)
B1 : specific ^3 H-LTB4 binding in presence of antagonist
B0 : specific ^3 H-LTB4 binding in absence of antagonist

T1 sequence (Q15722 whole entry): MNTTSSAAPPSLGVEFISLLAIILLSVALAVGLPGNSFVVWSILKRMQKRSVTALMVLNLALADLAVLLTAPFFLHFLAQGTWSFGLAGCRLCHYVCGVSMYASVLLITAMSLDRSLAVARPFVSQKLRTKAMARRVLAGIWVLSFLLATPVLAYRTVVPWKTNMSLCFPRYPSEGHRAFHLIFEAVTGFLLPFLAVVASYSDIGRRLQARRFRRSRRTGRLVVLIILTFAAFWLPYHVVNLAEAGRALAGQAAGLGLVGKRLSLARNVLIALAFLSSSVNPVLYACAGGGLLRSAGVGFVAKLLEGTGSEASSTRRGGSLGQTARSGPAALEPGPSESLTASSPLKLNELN

IC50 [nM]	Compound
1000	COc1ccc(/C=C/CCCCOc2ccc(N(S(=O)(=O)Cc3ccccc3)S(=O)(=O)Cc3ccccc3)cc2CCC(=O)O)cc1 [10 (c), 3-[1-[6-(4-methoxyphenyl)hex-5E-enyl]oxy-4-bis(benzylsulfonyl)aminobenzen-2-yl]propionic acid]
6	COc1ccc(/C=C/CCCCOc2ccc(N3C(=O)CCS3(=O)=O)cc2CCC(=O)O)cc1 [12 (b), 3-[1-[6-(4-methoxyphenyl)hex-5E-enyl]oxy-4-(isothiazolidin-1,1,3-trione-2-yl)benzen-2-yl]propionic acid]
150	COc1ccc(CCCCCCOc2cccc(OCCCCC(=O)N(C)C)c2CCC(=O)O)cc1 [30 (b), 3-[1-[6-(4-methoxyphenyl)hexyl]oxy-3-(4-dimethylaminocarbonylbutyl)oxybenzen-2-yl]propionic acid]
130	COc1ccc(/C=C/CCCCOc2ccc(NC(=O)CCCC(=O)N3CCOCC3)cc2CCC(=O)O)cc1 [Example 1, 3-[1-[6-(4-methoxyphenyl)hex-5E-enyl]oxy-4-(5-oxo-5-morpholinopentanamido)benzen-2-yl]propionic acid]
40	COc1ccc(/C=C/CCCCOc2ccc(NC(=O)CCCC(=O)O)cc2CCC(=O)O)cc1 [Example 2, 3-[1-[6-(4-methoxyphenyl)hex-5E-enyl]oxy-4-(4-carboxylbutanamido)benzen-2-yl]propionic acid]
170	CCCCCCC(=O)Nc1ccc(OCCCC/C=C/c2ccc(OC)cc2)c(CCC(=O)O)c1 [Example 3, 3-[1-[6-(4-methoxyphenyl)hex-5E-enyl]oxy-4-heptanamidobenzen-2-yl]propionicacid]
90	COc1ccc(/C=C/CCCCOc2ccc(NC(=O)CCCCO)cc2CCC(=O)O)cc1 [Example 4, 3-[1-[6-(4-methoxyphenyl)hex-5E-enyl]oxy-4-(5-hydroxypentanamido)benzen-2-yl]propionic acid]
20	CCCCCCCCC(O)/C=C/CCCCOc1ccc(NC(=O)CCCC(=O)N(C)C)cc1CCC(=O)O (stereo not shown) [Example 5, 3-[1-(5E-7-hydroxypentadecenyl)oxy-4-(4-dimethylaminocarbonylbutanamido)benzen-2-yl]propionic acid]
80	COc1ccc(CCCCCCOc2ccc(NS(=O)(=O)c3ccc(C)cc3)cc2CCC(=O)O)cc1 [Example 6, 3-[1-[6-(4-methoxyphenyl)hexyl]oxy-4-(4-methylphenyl)sulfonylaminobenzen-2-yl]propionic acid]
10	COc1ccc(/C=C/CCCCOc2ccc(N(C(C)=O)S(C)(=O)=O)cc2CCC(=O)O)cc1 [Example 9, 3-[1-[6-(4-methoxyphenyl)hex-5E-enyl]oxy-4-(N-acetyl-N-mesyl)aminobenzen-2-yl]propionic acid]
13	COc1ccc(/C=C/CCCCOc2ccc(N(S(C)(=O)=O)S(C)(=O)=O)cc2CCC(=O)O)cc1 [Example 10, 3-[1-[6-(4-methoxyphenyl)hex-5E-enyl]oxy-4-dimesylaminobenzen-2-yl]propionic acid]
45	COc1ccc(/C=C/CCCCOc2ccc(N3C(=O)c4ccccc4C3=O)cc2CCC(=O)O)cc1 [Example 11, 3-[1-[6-(4-methoxyphenyl)hex-5E-enyl]oxy-4-phthalimidobenzen-2-yl]propionicacid]
7	COc1ccc(/C=C/CCCCOc2ccc(N3C(=O)CCCS3(=O)=O)cc2CCC(=O)O)cc1 [Example 12, 3-[1-[6-(4-methoxyphenyl)hex-5E-enyl]oxy-4-(perhydro-1,2-thiazin-1,1,3-trione-2-yl]benzen-2-yl]propionic acid]

The next lines start with the molecule.

Compound	IC50 [nM]
CCCCCCCCCCCCOc1ccc(NC(=O)CCCC(=O)N(C)C)cc1CCC(=O)O [1 (c), 3-[1-n-dodecyloxy-4-(4-dimethylaminocarbonylbutanamido)benzen-2-yl]propionic acid]	1000
CCCOc1ccc(/C=C/CCCCOc2ccc(NC(=O)CCCC(=O)N(C)C)cc2CCC(=O)O)cc1 [1 (e), 3-[1-[6-(4-n-propoxyphenyl)hex-5E-enyl]oxy-4-(4-dimethylaminocarbonylbutanamido)benzen-2-yl]propionic acid]	80
C=CCOc1ccc(/C=C/CCCCOc2ccc(NC(=O)CCCC(=O)N(C)C)cc2CCC(=O)O)cc1 [1 (f), 3-[1-[6-[4-(2-propenyl)oxyphenyl]hex-5E-enyl]oxy-4-(4-dimethylaminocarbonylbutanamido)benzen-2-yl]propionic acid]	50
CCCCCOc1ccc(/C=C/CCCCOc2ccc(NC(=O)CCCC(=O)N(C)C)cc2CCC(=O)O)cc1 [1 (i), 3-[1-[6-(4-n-pentyloxyphenyl)hex-5E-enyl]oxy-4-(4-dimethylaminocarbonylbutanamido)benzen-2-yl]propionic acid]	400
COc1ccc(CCCCCCOc2ccc(NC(=O)CCCC(=O)N(C)C)cc2CCC(=O)O)cc1 [1 (j), 3-[1-[6-(4-methoxyphenyl)-n-hexyl]oxy-4-(4-dimethylaminocarbonylbutanamido)benzen-2-yl]propionic acid]	200
COc1cccc(/C=C/CCCCOc2ccc(NC(=O)CCCC(=O)N(C)C)cc2CCC(=O)O)c1 [1 (m), 3-[1-[6-(3-methoxyphenyl)hex-5E-enyl]oxy-4-(4-dimethylaminocarbonylbutanamido)benzen-2-yl]propionic acid]	490
COc1ccc(/C=C/CCCCOc2ccc(NC(=O)CCCC(=O)N3CCc4ccccc43)cc2CCC(=O)O)cc1 [1 (n), 3-[1-[6-(4-methoxyphenyl)hex-5E-enyl]oxy-4-[4-(1-indolinyl)carbonylbutanamido]benzen-2-yl]propionic acid]	70
CSc1ccc(/C=C/CCCCOc2ccc(NC(=O)CCCC(=O)N(C)C)cc2CCC(=O)O)cc1 [1 (q), 3-[1-[6-(4-methylthiophenyl)hex-5E-enyl]oxy-4-(4-dimethylaminocarbonylbutanamido)benzen-2-yl]propionic acid]	50
COc1ccc(/C=C/CCCCOc2ccc(NC(=O)CCCC(=O)N(C)C)cc2CCC(=O)O)cc1OC [1 (r), 3-[1-[6-(3,4-dimethoxyphenyl)hex-5E-enyl]oxy-4-(4-dimethylaminocarbonylbutanamido)benzen-2-yl]propionic acid]	1100
Cc1ccc(/C=C/CCCCOc2ccc(NC(=O)CCCC(=O)N(C)C)cc2CCC(=O)O)cc1 [1 (s), 3-[1-[6-(4-methylphenyl)hex-5E-enyl]oxy-4-(4-dimethylaminocarbonylbutanamido)benzen-2-yl]propionic acid]	170
CN(C)C(=O)CCCC(=O)Nc1ccc(OCCCC/C=C/c2ccc(Cl)cc2)c(CCC(=O)O)c1 [1 (t), 3-[1-[6-(4-chlorophenyl)hex-5E-enyl]oxy-4-(4-dimethylaminocarbonylbutanamido)benzen-2-yl]propionic acid]	220
COc1ccc(/C=C/CCCCOc2ccc(NC(=O)c3cccc(C(=O)N(C)C)c3)cc2CCC(=O)O)cc1 [1 (u), 3-[1-[6-(4-methoxyphenyl)hex-5E-enyl]oxy-4-(3-dimethylaminocarbonylbenzamido)benzen-2-yl]propionic acid]	80
COc1ccc(/C=C/CCCCOc2ccc(NC(=O)CCCC(=O)O)cc2/C=C/C(=O)O)cc1 [2 (a), 3-[1-[6-(4-methoxyphenyl)hex-5E-enyl]oxy-4-(4-carboxylbutanamido)benzen-2-yl]-E-acrylic acid]	200
COc1ccc(/C=C/CCCCOc2ccc(NC(=O)c3ccccc3)cc2CCC(=O)O)cc1 [3 (a), 3-[1-[6-(4-methxoyphenyl)hex-5E-enyl]oxy-4-benzamidobenzen-2-yl]propionic acid]	200
COc1ccc(/C=C/CCCCOc2ccc(NC(=O)c3cccc(CO)c3)cc2CCC(=O)O)cc1 [4 (b), 3-[1-[6-(4-methoxyphenyl)hex-5E-enyl]oxy-4-(3-hydroxymethylbenzamido)benzen-2yl]propionic acid]	60
CCCCCC(O)/C=C/CCCCOc1ccc(NC(=O)CCCC(=O)N(C)C)cc1CCC(=O)O (stereo not shown) [5 (b), 3-[1-(5E-7-hydroxydodecenyl)oxy-4-dimethylaminocarbonylbutanamidobenzen-2-yl]propionic acid]	300
COc1ccc(CCC(O)/C=C/CCCCOc2ccc(NC(=O)CCCC(=O)N(C)C)cc2CCC(=O)O)cc1 (stereo not shown) [5 (c), 3-[1-[5E-7-hydroxy-9-(4-methoxyphenyl)nonenyl]oxy-4-dimethylaminocarbonylbutanamidobenzen-2-yl]propionic acid]	700
CN(C)C(=O)CCCC(=O)Nc1ccc(OCCCC/C=C/C(O)C2CCCCC2)c(CCC(=O)O)c1 (stereo not shown) [5 (e), 3-[1-(5E-7-hydroxy-7-cyclohexylheptenyl)oxy-4-dimethylaminocarbonylbutanamidobenzen-2-yl]propionic acid]	350
COc1ccc(/C=C/CCCCOc2ccc(NS(C)(=O)=O)cc2CCC(=O)O)cc1 [6 (b), 3-[1-[6-(4-methoxyphenyl)hex-5E-enyl]oxy-4-methylsulfonylaminobenzen-2-yl]propionic acid]	30
COc1ccc(/C=C/CCCCOc2ccc(NS(=O)(=O)Cc3ccccc3)cc2CCC(=O)O)cc1 [6 (c), 3-[1-[6-(4-methoxyphenyl)hex-5E-enyl]oxy-4-benzylsulfonylaminobenzen-2-yl]propionic acid]	200
COc1ccc(/C=C/CCCCOc2ccc(NS(=O)(=O)CCCC(=O)N(C)C)cc2CCC(=O)O)cc1 [7 (a), 3-[1-[6-(4-methoxyphenyl)hex-5E-enyl]oxy-4-(3-dimethylaminocarbonyl-n-propyl)sulfonylaminobenzen-2-yl]propionic acid]	30
